Source: PubChem BioAssay (NCI)
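Tested at 5 concentrations; 48 h exposure; 96-well plates; endpoints linearly interpolated, else capped at highest concentration. Here, GI50 denotes the concentration required for 50% inhibition of growth. TGI denotes the concentration required for complete inhibition of growth.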

How the values were obtained:
Test in all cases: growth of human tumour cells (NCI), 48 h
786-0 renal = tested on: 786-0 renal
A498 renal = tested on: A498 renal
A549 NSCLC = tested on: A549 NSCLC
ACHN renal = tested on: ACHN renal
BT-549 breast = tested on: BT-549 breast
CAKI-1 renal = tested on: CAKI-1 renal
CCRF-CEM leukemia = tested on: CCRF-CEM leukemia
COLO 205 colon = tested on: COLO 205 colon
DU-145 prostate = tested on: DU-145 prostate
EKVX NSCLC = tested on: EKVX NSCLC
HCC-2998 colon = tested on: HCC-2998 colon
HCT-116 colon = tested on: HCT-116 colon
HCT-15 colon = tested on: HCT-15 colon
HL-60(TB) leukemia = tested on: HL-60(TB) leukemia
HOP-62 NSCLC = tested on: HOP-62 NSCLC
HS 578T breast = tested on: HS 578T breast
HT29 colon = tested on: HT29 colon
IGROV1 ovarian = tested on: IGROV1 ovarian
K-562 leukemia = tested on: K-562 leukemia
KM12 colon = tested on: KM12 colon
LOX IMVI melanoma = tested on: LOX IMVI melanoma
M14 melanoma = tested on: M14 melanoma
MALME-3M melanoma = tested on: MALME-3M melanoma
MCF7 breast = tested on: MCF7 breast
MDA-MB-231 breast = tested on: MDA-MB-231 breast
MDA-MB-435 = tested on: MDA-MB-435
MOLT-4 leukemia = tested on: MOLT-4 leukemia
NCI-H226 lung = tested on: NCI-H226 lung
NCI-H23 lung = tested on: NCI-H23 lung
NCI-H460 lung = tested on: NCI-H460 lung
NCI-H522 lung = tested on: NCI-H522 lung
NCI/ADR-RES ovarian = tested on: NCI/ADR-RES ovarian
OVCAR-3 ovarian = tested on: OVCAR-3 ovarian
OVCAR-4 ovarian = tested on: OVCAR-4 ovarian
OVCAR-5 ovarian = tested on: OVCAR-5 ovarian
OVCAR-8 ovarian = tested on: OVCAR-8 ovarian
PC-3 prostate = tested on: PC-3 prostate
RPMI-8226 leukemia = tested on: RPMI-8226 leukemia
RXF 393 renal = tested on: RXF 393 renal
SF-268 CNS = tested on: SF-268 CNS
SF-295 CNS = tested on: SF-295 CNS
SF-539 CNS = tested on: SF-539 CNS
SK-MEL-2 melanoma = tested on: SK-MEL-2 melanoma
SK-MEL-28 melanoma = tested on: SK-MEL-28 melanoma
SK-MEL-5 melanoma = tested on: SK-MEL-5 melanoma
SK-OV-3 ovarian = tested on: SK-OV-3 ovarian
SN12C renal = tested on: SN12C renal
SNB-19 CNS = tested on: SNB-19 CNS
SNB-75 CNS = tested on: SNB-75 CNS
SW-620 colon = tested on: SW-620 colon
T-47D breast = tested on: T-47D breast
TK-10 renal = tested on: TK-10 renal
U251 CNS = tested on: U251 CNS
UACC-257 melanoma = tested on: UACC-257 melanoma
UACC-62 melanoma = tested on: UACC-62 melanoma
UO-31 renal = tested on: UO-31 renal
HOP-92 NSCLC = tested on: HOP-92 NSCLC
SR leukemia = tested on: SR leukemia

## COc1cc(NC(=O)c2cc(O)c(CC=C(C)C)c(O)c2)cc2c1O[C@]1(C)CC[C@@H](O)C(C)(C)[C@H]1C2
786-0 renal
  GI50: 0.567 µM
  TGI: 7.24 µM
A498 renal
  GI50: 1.21 µM
  TGI: 7.94 µM
A549 NSCLC
  GI50: 6.87 µM
  TGI: 23.2 µM
ACHN renal
  GI50: 5.38 µM
  TGI: 48.7 µM
BT-549 breast
  GI50: 0.819 µM
  TGI: 13.5 µM
CAKI-1 renal
  GI50: 3.17 µM
  TGI: > 100 µM
CCRF-CEM leukemia
  GI50: 2.21 µM
  TGI: > 100 µM
COLO 205 colon
  GI50: 2.24 µM
  TGI: 5.5 µM
DU-145 prostate
  GI50: 7.49 µM
  TGI: 20.5 µM
EKVX NSCLC
  GI50: 5.96 µM
  TGI: 48.2 µM
HCC-2998 colon
  GI50: 10.6 µM
  TGI: 24.8 µM
HCT-116 colon
  GI50: 3.37 µM
  TGI: 15.4 µM
HCT-15 colon
  GI50: 4.09 µM
  TGI: 21.3 µM
HL-60(TB) leukemia
  GI50: 1.88 µM
  TGI: 18.7 µM
HOP-62 NSCLC
  GI50: 5.2 µM
  TGI: 30.9 µM
HS 578T breast
  GI50: 0.456 µM
  TGI: 15.5 µM
HT29 colon
  GI50: 3.47 µM
  TGI: 11.9 µM
IGROV1 ovarian
  GI50: 7.51 µM
  TGI: 54.9 µM
K-562 leukemia
  GI50: 3.58 µM
  TGI: 34.1 µM
KM12 colon
  GI50: 4.12 µM
  TGI: 18.4 µM
LOX IMVI melanoma
  GI50: 3.07 µM
  TGI: 19.1 µM
M14 melanoma
  GI50: 2.94 µM
  TGI: 13.5 µM
MALME-3M melanoma
  GI50: 6.24 µM
  TGI: 24.3 µM
MCF7 breast
  GI50: 2.1 µM
  TGI: 15.4 µM
MDA-MB-231 breast
  GI50: 3.56 µM
  TGI: 19.8 µM
MDA-MB-435
  GI50: 3.73 µM
  TGI: 23.7 µM
MOLT-4 leukemia
  GI50: 2.07 µM
  TGI: 7.87 µM
NCI-H226 lung
  GI50: 11.2 µM
  TGI: 31.7 µM
NCI-H23 lung
  GI50: 3.99 µM
  TGI: 25.7 µM
NCI-H460 lung
  GI50: 3.65 µM
  TGI: 19.2 µM
NCI-H522 lung
  GI50: 3.42 µM
  TGI: 12.3 µM
NCI/ADR-RES ovarian
  GI50: 37 µM
  TGI: > 100 µM
OVCAR-3 ovarian
  GI50: 5.93 µM
  TGI: 83.5 µM
OVCAR-4 ovarian
  GI50: 7.52 µM
  TGI: > 100 µM
OVCAR-5 ovarian
  GI50: 12 µM
  TGI: 66.7 µM
OVCAR-8 ovarian
  GI50: 6.34 µM
  TGI: 33.7 µM
PC-3 prostate
  GI50: 3.03 µM
  TGI: 35.1 µM
RPMI-8226 leukemia
  GI50: 0.428 µM
  TGI: 2.73 µM
RXF 393 renal
  GI50: 0.434 µM
  TGI: 2.34 µM
SF-268 CNS
  GI50: 4.65 µM
  TGI: 72.6 µM
SF-295 CNS
  GI50: 1.25 µM
  TGI: 3.85 µM
SF-539 CNS
  GI50: 0.659 µM
  TGI: 4.02 µM
SK-MEL-2 melanoma
  GI50: 1.33 µM
  TGI: 15.1 µM
SK-MEL-28 melanoma
  GI50: 2.31 µM
  TGI: 16.8 µM
SK-MEL-5 melanoma
  GI50: 1.51 µM
  TGI: 3.61 µM
SK-OV-3 ovarian
  GI50: 4.72 µM
  TGI: 28.8 µM
SN12C renal
  GI50: 8.83 µM
  TGI: 36.6 µM
SNB-19 CNS
  GI50: 3.68 µM
  TGI: 21 µM
SNB-75 CNS
  GI50: 0.772 µM
  TGI: 25.9 µM
SW-620 colon
  GI50: 3.09 µM
  TGI: 13.8 µM
T-47D breast
  GI50: 2.44 µM
  TGI: 22.6 µM
TK-10 renal
  GI50: 9.59 µM
  TGI: 55.6 µM
U251 CNS
  GI50: 0.846 µM
  TGI: 14.8 µM
UACC-257 melanoma
  GI50: 3.37 µM
  TGI: 15.7 µM
UACC-62 melanoma
  GI50: 2.41 µM
  TGI: 8.27 µM
UO-31 renal
  GI50: 2.42 µM
  TGI: 8.18 µM

## COc1cc(OC)c(/C=C/C(=O)c2c(OC)cccc2OC)c(OC)c1
786-0 renal
  GI50: 0.536 µM
  TGI: 3.89 µM
A498 renal
  GI50: 0.308 µM
A549 NSCLC
  GI50: 0.907 µM
  TGI: > 100 µM
ACHN renal
  GI50: 0.703 µM
  TGI: > 100 µM
BT-549 breast
  GI50: 0.3 µM
  TGI: 1.84 µM
CAKI-1 renal
  GI50: 0.463 µM
  TGI: 97 µM
CCRF-CEM leukemia
  GI50: 1.23 µM
  TGI: > 100 µM
COLO 205 colon
  GI50: 0.619 µM
DU-145 prostate
  GI50: 2.01 µM
  TGI: > 29.3 µM
EKVX NSCLC
  GI50: 4.03 µM
  TGI: > 100 µM
HCC-2998 colon
  GI50: 1.15 µM
  TGI: 6.91 µM
HCT-116 colon
  GI50: 0.394 µM
  TGI: > 100 µM
HCT-15 colon
  GI50: 0.482 µM
  TGI: > 100 µM
HL-60(TB) leukemia
  GI50: 0.348 µM
  TGI: 1.82 µM
HOP-62 NSCLC
  GI50: 0.742 µM
  TGI: > 100 µM
HOP-92 NSCLC
  GI50: 0.222 µM
HS 578T breast
  GI50: 1.28 µM
  TGI: > 36.3 µM
HT29 colon
  GI50: 0.398 µM
  TGI: > 100 µM
IGROV1 ovarian
  GI50: 0.497 µM
K-562 leukemia
  GI50: 0.444 µM
  TGI: > 100 µM
KM12 colon
  GI50: 0.59 µM
  TGI: > 26 µM
LOX IMVI melanoma
  GI50: 0.566 µM
  TGI: > 100 µM
M14 melanoma
  GI50: 0.441 µM
  TGI: 2.63 µM
MALME-3M melanoma
  GI50: 0.45 µM
  TGI: > 100 µM
MCF7 breast
  GI50: 0.392 µM
  TGI: > 100 µM
MDA-MB-231 breast
  GI50: 1.07 µM
  TGI: > 100 µM
MDA-MB-435
  GI50: 0.263 µM
  TGI: 1.09 µM
MOLT-4 leukemia
  GI50: 1.17 µM
  TGI: > 100 µM
NCI-H226 lung
  GI50: 1.99 µM
  TGI: > 100 µM
NCI-H23 lung
  GI50: 1.46 µM
  TGI: > 27.6 µM
NCI-H460 lung
  GI50: 0.393 µM
  TGI: > 20.3 µM
NCI/ADR-RES ovarian
  GI50: 0.387 µM
  TGI: > 25.8 µM
OVCAR-3 ovarian
  GI50: 0.431 µM
OVCAR-4 ovarian
  GI50: 19.7 µM
  TGI: > 100 µM
OVCAR-5 ovarian
  GI50: 2.17 µM
  TGI: > 100 µM
OVCAR-8 ovarian
  GI50: 1.43 µM
  TGI: > 100 µM
PC-3 prostate
  GI50: 1.17 µM
  TGI: > 100 µM
RPMI-8226 leukemia
  GI50: 0.666 µM
  TGI: > 100 µM
RXF 393 renal
  GI50: 0.561 µM
  TGI: 2.17 µM
SF-268 CNS
  GI50: 1.14 µM
  TGI: > 42.1 µM
SF-295 CNS
  GI50: 0.395 µM
SF-539 CNS
  GI50: 0.533 µM
  TGI: 4.41 µM
SK-MEL-2 melanoma
  GI50: 0.807 µM
  TGI: > 100 µM
SK-MEL-28 melanoma
  GI50: 1.01 µM
  TGI: > 21.3 µM
SK-MEL-5 melanoma
  GI50: 0.348 µM
  TGI: 2.49 µM
SK-OV-3 ovarian
  GI50: 0.79 µM
  TGI: > 100 µM
SN12C renal
  GI50: 1.1 µM
  TGI: > 100 µM
SNB-19 CNS
  GI50: 0.775 µM
  TGI: > 100 µM
SNB-75 CNS
  GI50: 0.339 µM
SR leukemia
  GI50: 0.517 µM
  TGI: > 100 µM
SW-620 colon
  GI50: 0.375 µM
  TGI: > 32.6 µM
T-47D breast
  GI50: 0.383 µM
  TGI: > 100 µM
TK-10 renal
  GI50: 5.03 µM
  TGI: > 100 µM
U251 CNS
  GI50: 0.592 µM
  TGI: > 100 µM
UACC-257 melanoma
  TGI: > 100 µM
UACC-62 melanoma
  GI50: 0.362 µM
  TGI: 3.06 µM
UO-31 renal
  GI50: 0.899 µM
  TGI: > 100 µM
